Consider four molecules from PMC8252719, “Macrocyclic FKBP51 Ligands Define a Transient Binding Mode with Enhanced Selectivity” (Angewandte Chemie (International Ed. in English), 2021).

SMILES strings stand for the structures. Where two headings read alike, the source gives them in different places.

The subject of assay [1] is phorbol/ionomycin-induced IL8 secretion in Jurkat cells. Briefly: immunostimulation/suppression assay in Jurkat cells (IL8 secretion). The assay is classed as cell-based, human. As to conditions: IL8 ELISA; for effect on phorbol/ionomycin-induced IL8 secretion (compound on its own): 50 ng/ml PMA and 750 ng/ml Ionomycin, six hours. The procedure:
Importantly, unlike the pan‐selective FKBP ligand [4.3.1]16h ^[21]
5.1 Immunostimulation/suppression assays in JURKAT cells
Figure S6A. Cellular analysis of compound FK[431]-16h in Jurkat cells
150 000 Jurkat cells were seeded in a 96 well plate in 180 µl and treated for 30 minutes with 13d or FK[431]-16h at the indicated […]
Cells were pelleted and supernatant collected and stored at -80°C. The IL8 content in the s upernatant was determined using the human IL8/CXCL8 DuoSet Elisa kit (RndSystems) according to manufacturers instructions . The sample volume of supernatant was adapted to 150 µl. Optical density wa s assessed using a Tecan Spark.
(§1) 5.2 IKKα inhibition in SIM-A9 cells
(§2) Cell culture and treatments
(§3) Murine microglia SIM-A9 cells were cultured at 37 °C, 5% CO2 in Dulbecco's Modified Eagle Medium (DMEM) high glucose with GlutaMAX (Thermo Fisher Scientific, 10566016), supplemented with 1 mM sodium pyruvate (Thermo Fisher Scientific, 11360-070), 10% fetal bovine serum (PAN Biotech, P30-8500), and 1% antibiotic-antimycotic (Thermo Fisher Scientific, 15240-062).
(§4) For the preparation of whole-cell lysates, confluent SIM-A9 cell cultures treated with the indicated compounds for 16 h in the above mentioned growth medium, were washed two times with ice-cold DPBS (Thermo Fisher Scientific, 14190-144) and lysed in an appropriate volume of RIPA buffer (Thermo Fisher Scientific, 89901), freshly supplemented with 1x cOmplete™ EDTA-free protease inhibitor cocktail (Roche, 4693132001) and 1x PhosSTOP™ phosphatase inhibitor cocktail (Roche, 4906837001) for 20 min on ice.
(§5) Subsequently, samples were centrifuged for 10 min at 4°C at 13000 rpm. The resulting supernatants were transferred to new 1.5 ml reaction tubes and prepared for separation with an SDS-PAGE system and analyzed by immunoblotting.
(§6) SDS-PAGE and immunoblotting
Separation of proteins was performed with the Criterion™ Vertical Electrophoresis Cell System (Bio-Rad, 1656001) on 4–20% Criterion™ TGX™ Precast Midi Protein Gels (Bio-Rad, 5671095). […]

Assay [2] concerns the target T1, FKBP51FK1 (Homo sapiens, UniProt Q13451).
T1 sequence (Q13451 42-130 limits assumed): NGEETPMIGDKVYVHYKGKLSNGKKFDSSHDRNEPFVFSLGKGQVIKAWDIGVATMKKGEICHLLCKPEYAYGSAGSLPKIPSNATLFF
Conditions: values derived from literature; read-out: FKBP51FK1 K i; cited from earlier work. An excerpt: Table 1 Affinities of the macrocycles with amino acid containing linker determined by a competitive fluorescence polarization assay. | column: FKBP51FK1 / K i [μM]^[a]

Assay [3] addresses T1, FKBP51FK1. In words: competitive fluorescence polarization assay, FKBP51FK1. The assay is classed as binding. The procedure: Table S1. Ki values were determined by a competitive fluoresc ence polarization assay.
4.1 Binding curves of 13a, c and d […]

The next assay has as its target FKBP12 (Homo sapiens, UniProt P62942). Briefly: competitive fluorescence polarization assay, FKBP12. The assay is classed as binding. Conditions: for binding to FKBP12 (in words): fluorescence polarization assay.
Another assay addresses FKBP12.6 (Homo sapiens, UniProt P68106). Briefly: competitive fluorescence polarization assay, FKBP12.6. The assay is classed as binding. Conditions: for binding to FKBP12.6 (in words): fluorescence polarization assay.
In a further assay the target is T2, FKBP52FK1 (Homo sapiens, UniProt Q02790).
T2 sequence (Q02790 50-138 limits assumed): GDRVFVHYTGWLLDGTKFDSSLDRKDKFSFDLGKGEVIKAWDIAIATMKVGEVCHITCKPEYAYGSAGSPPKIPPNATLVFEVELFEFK
Briefly: competitive fluorescence polarization assay, FKBP52FK1. The assay is classed as binding. As to conditions: Table 1 compounds tested up to 80 μM.

Assay [4] deals with IKKα phosphorylation in SIM-A9 cells. Briefly: IKKα inhibition in SIM-A9 cells (Western blot). The assay is classed as cell-based, murine. The method, then: We next explored if the macrocyclic ligands could interfere with the cellular functions of FKBP51. We therefore treated SIM‐A9 cells, which were recently discovered as a SAFit‐sensitive cellular model for stress‐mediated secretory autophagy. ^[24] […] (Figure 2 F and S6C). […]
as §1, §2, §3, §4, §5, §6
Separation of proteins was performed with the Criterion™ Vertical Electrophoresis Cell System (Bio-Rad, 1656001) on 4–20% Criterion™ TGX™ Precast Midi Protein Gels (Bio-Rad, 5671095). Immunoblotting was performed with the Trans-Blot Turbo Transfer System (Bio-Rad, 1704150) on 0.2 µm PVDF Trans-Blot Turbo Transfer Membranes (Bio-Rad, 1704157). For immunodetection, membranes were placed in TBS, supplemented with 0.05% Tween (Sigma-Aldrich, P9416) and 5% non-fat milk (Carl Roth, T145.1) for 1 h at RT and then incubated with the primary antibody diluted in TBS-T overnight at 4°C. Following primary antibodies were used:
Phospho-IKKα S176/phospho-IKKβ S177 (1:1000, Cell Signaling Technology, 2078), IKKα (1:1000, Cell Signaling Technology, 1682) and GAPDH (1:1000, Cell Signaling Techology, 5174).
Then, immunoblots were washed and probed with horseradish peroxidase- conjugated secondary antibody (1:10000, Cell Signaling Technology, 7074) for 1 h at RT. Immunoreactive protein bands were visualized using Clarity Western ECL Substrate (Bio-Rad, 1705061) or Clarity Max Western ECL Substrate (Bio-Rad, 1705062). Determination of the band intensities was performed with […]

The target in assay [5] is T1, FKBP51FK1. Briefly: isothermal titration calorimetry (ITC). The assay is classed as binding. The procedure:
1. ITC of compounds 13a and 13d
Figure S1. A) Binding of compound 13a to FKBP51FK1 determined by isothermal titration calorimetry at 25 °C. A 20 µM solution FKBP51FK1 formulated in 20 mM
HEPES pH 8.0, 20 mM NaCl, 5% glycerol and 2% DMSO was placed in the sample cell of a PEAK-ITC instrument. The syringe was filled with a 200 µM solution of
13a formulated in the same buffer. After equilibration the compound was titrated into the sample cell by 12 injection s of 3 µl each. The obtained data was analyzed
Binding of compound 13d to FKBP51FK1 determined by isothermal titration calorimetry at 25 °C. A 13 µM solution FKBP51FK1 formulated in 20 mM HEPES pH
8.0, 20 mM NaCl, 5% glycerol and 2% DMSO was placed in the sample cell of a PEAK -ITC instrument. The syringe was filled with a 10 0 µM solution of 13d
formulated in the same buffer. After equilibration the compound was titrated into the sample cell by 12 injections of 3 µl each. The obtained data was analyzed using […]

The mark [6] stands for this setting: meta B ring substituent R6, read-out: FKBP51 Ki (Table S1).

FKBP12.6, sequence (P68106 whole entry): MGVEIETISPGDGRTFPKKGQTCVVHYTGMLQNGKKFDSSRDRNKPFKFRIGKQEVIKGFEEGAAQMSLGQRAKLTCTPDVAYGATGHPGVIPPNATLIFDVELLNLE
FKBP12, sequence (P62942 whole entry): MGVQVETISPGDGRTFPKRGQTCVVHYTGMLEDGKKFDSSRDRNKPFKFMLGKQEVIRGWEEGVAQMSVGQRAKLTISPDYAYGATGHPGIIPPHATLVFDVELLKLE

In the case of `C=CC[C@@H]1/C=C(\C)C[C@H](C)C[C@H](OC)[C@H]2O[C@@](O)(C(=O)C(=O)N3CCCC[C@H]3C(=O)O[C@H](/C(C)=C/[C@@H]3CC[C@@H](O)[C@H](OC)C3)[C@H](C)[C@@H](O)CC1=O)[C@H](C)C[C@@H]2OC` [FK506, reference compound], the “effect on phorbol/ionomycin-induced IL8 secretion (compound on its own)” value in assay [1] is reported as “blocks”. Besides, on FKBP51FK1 [2], the Ki is 0.104 µM.

As to `COc1cc2cc(c1)[C@@H](CCc1ccc(OC)c(OC)c1)OC(=O)[C@@H]1CCCCN1C(=O)[C@@H](C1CCCCC1)NC(=O)C(C)(C)NC(=O)CO2` [compound 26], the Ki at FKBP51FK1 [3] (setting [6]) was 0.39 µM. Further, the “binding to FKBP12 (in words)” value at FKBP12 was “no binding”. The “binding to FKBP12.6 (in words)” value at FKBP12.6 is “no binding”. For the same molecule, the “binding to FKBP52FK1 (in words)” value on FKBP52FK1 is reported as “no binding”.

For the molecule `COc1ccc(CC[C@H]2OC(=O)[C@@H]3CCCCN3C(=O)[C@@H](C3CCCCC3)NC(=O)C3(CC3)NC(=O)COc3cccc2c3)cc1OC` [13 d], the “concentration at which apparent maximal inhibition of IKKα phosphorylation was already reached” value in assay [4] (SIM-A9 cells, lowest tested concentration) is at most 1 µM. Also, in assay [4] (murine microglia SIM-A9 cells, 16 h treatment, Western blot, three (macrocycles) or six (SAFit) independent cellular assays), the “inhibition of IKKα phosphorylation (in words)” value is given as “inhibited”. For the same molecule, the “effect on phorbol/ionomycin-induced IL8 secretion (compound on its own)” value in assay [1] was “neither immunostimulatory nor immunosuppressive”. Moreover, in assay [1] (30 minutes pretreatment, then 0.2 nM FK506, PMA/Ionomycin), the “effect on the immunosuppressive activity of FK506” value is on record as “did not block”. The Ki on FKBP51FK1 [3] (setting [6]) was 0.29 µM; at FKBP51FK1 [3] (± = standard error from three independent measurements [b] or error from two independent measurements [d], SEM, read-out: FKBP51FK1 K i) it was 0.4 ± 0.05 µM; at FKBP12 (competitive fluorescence polarization assay, >80 μM = highest measurable concentration before compound precipitation, ± = standard error from three independent measurements, read-out: FKBP12 K i), above 80 µM; on FKBP12.6 (competitive fluorescence polarization assay, >80 μM = highest measurable concentration before compound precipitation, ± = standard error from three independent measurements, read-out: FKBP12.6 K i), above 80 µM. In addition, the Kd was 0.6 ± 0.1 µM at FKBP51FK1 [5] (25 °C, 20 mM HEPES pH 8.0, 20 mM NaCl, 5% glycerol, 2% DMSO, one-site binding model, mean ± SD from 3 independent experiments, SD, read-out: Kd-value for FKBP51FK1 by ITC) and 0.6 µM at FKBP51FK1 [5] (isothermal calorimetry, enthalpy-driven, read-out: K d for FKBP51 by ITC).

For the molecule `COc1ccc(CC[C@H]2OC(=O)[C@@H]3CCCCN3C(=O)[C@@H](C3CCCCC3)NC(=O)C(C)(C)NC(=O)COc3cc(O)cc2c3)cc1OC` [compound 25], on FKBP51FK1 [3] (setting [6]), the Ki turned out to be 0.37 µM. Further, the “binding to FKBP12 (in words)” value at FKBP12 is given as “no binding”. Further, at FKBP12.6, the “binding to FKBP12.6 (in words)” value is “no binding”. For the same molecule, the “binding to FKBP52FK1 (in words)” value at FKBP52FK1 was “no binding”.
